Reference: US20240173289A1, “USE OF OXYMETHYL-MODIFIED DERIVATIVE OF QUERCETIN IN PREPARATION OF DRUG FOR INHIBITING TUMOR CELL PROLIFERATION” (ZHEJIANG UNIVERSITY, priority 2021, published 2024)
Converted amounts (≈) assume the structure as drawn. Read-outs that look alike come from different tables or passages of the source. Blank lines part the entries; values can stand above or below the compound they belong to.

Assays:
[1] = tested on: HepG2 transplanted tumors; assay: proliferation of HepG2 transplanted tumors in nude mice in vivo; parameters: species or system BALB/c nude mice; conditions: 10 mg/kg bw·d intraperitoneal; day 12
Description: BALB/c nude mice (5 to 6 weeks old), weighing 19 g to 22 g, were purchased from Shanghai Experimental Animal Center, Chinese Academy of Sciences. HepG2 cells were collected in a serum-free DMEM medium to make a cell suspension, and then the cell suspension was injected into an underarm area of each mouse, approximately 2.0×10^6 cells, one site per mouse. All mice were bred in the Experimental Animal Center of Zhejiang University, under the environment of 23° C. to 25° C., humidity 50% to 60%, and cycle of 12 h light illumination/dark 12 h. After tumor formation, the mice were randomly divided into 3 groups with 7 mice in each group. The model group was given saline by intraperitoneal injection; the positive drug group was given tegafur at 10 mg/kg bw·d by intraperitoneal injection; the treatment group was intraperitoneally injected with the quercetin 3,3′-dimethyl ether at 50 mg/kg bw·d. According to the change of tumor volume, after the tumor formed, intraperitoneal injection was conducted every 1 d to 2 d, the tumor volume was measured, and the body weight of the mice was weighed. When there was a significant difference in tumor volume between different treatment groups, the mice were sacrificed by cervical dislocation, and the tumor tissue was carefully peeled off, weighed, and calculated. The formulas were: tumor formation rate (%)=(number of tumor-forming mice in treatment group/number of tumor-forming mice in inoculation group)×100; tumor inhibition rate (%)=(average tumor weight in control group (g)−average tumor weight in administration group (g))/average tumor weight in control group (g)×100. Serum, liver, spleen, and kidney were collected and weighed.

[2] = tested on: intestinal cancer cells Caco2; assay: in vitro cell proliferation inhibition (CCK-8); type: cell-based
Description: (§1) Osteosarcoma cell line 143B, HOS, and U2, liver cancer cell line HepG2, breast cancer cell line MDA-MB-231 and T47D, gastric cancer cell line AGS, BGC-823, and SGC-7901, cervical cancer cells Hela, lung cancer cells A549, intestinal cancer cells Caco2, mouse glioma cells BV-2, human prostate cancer cells PC3, human thyroid cancer cell line BCPAP, human normal liver cell line L02, human normal gastric cell line GES, human umbilical vein epithelial cells HUVEC, and human embryonic lung fibroblasts WI-38 were cultured in a DMEM medium containing 10% fetal bovine serum and 1×HEPES in a humid incubator (37° C., 5% CO2). The cells were passaged with trypsin-EDTA in logarithmic phase. Certain density of cells (AGS, T47D, Caco2, BCPAP, GES, HUVEC 1×10^5 cells per well; HepG2, MDA-MB-231, BGC-823, A549, PC3, L02 8×10^4 cells per well; 143B, HOS, U2, SGC-7901, Hela, BV-2, 5×10^4 cells per well; WI-38, 3×10^5 cells per well) were inoculated in a 96-well plate, and cultured for 24 h before treatment. After replacing a fresh medium, 12.5 mg/L to 400 mg/L of quercetin, quercetin 3-methyl ether, and quercetin 3,3′-dimethyl ether dissolved with DMSO were added into the medium (a final volume ratio was 0.1%, and the DMSO was used as a […]). After incubation for 48 h, a complete medium was replaced with a serum-free medium containing 10% CCK-8 reagent. The absorbance at 450 nm and 620 nm was measured separately after the cells were incubated for 1 h. Each experiment was repeated three times independently.
as §1, with “400 mg/L,” for “400 mg/L”, “of” for “of quercetin, quercetin 3-methyl ether, and”, “DMSO was” for “DMSO were”, “into a” for “into the”

[3] = tested on: gastric cancer cell line AGS; assay: in vitro cell proliferation inhibition (CCK-8); type: cell-based; conditions: 48 h incubation
Description: as §1
as §1, with “400 mg/L,” for “400 mg/L”, “of” for “of quercetin, quercetin 3-methyl ether, and”, “DMSO was” for “DMSO were”, “into a” for “into the”

[4] = tested on: gastric cancer cell line SGC-7901; assay: in vitro cell proliferation inhibition (CCK-8); type: cell-based
Description: as §1
as §1, with “400 mg/L,” for “400 mg/L”, “of” for “of quercetin, quercetin 3-methyl ether, and”, “DMSO was” for “DMSO were”, “into a” for “into the”

[5] = tested on: Osteosarcoma cell line 143B; assay: in vitro cell proliferation inhibition (CCK-8); type: cell-based; conditions: 48 h incubation
Description: as §1
as §1, with “400 mg/L,” for “400 mg/L”, “of” for “of quercetin, quercetin 3-methyl ether, and”, “DMSO was” for “DMSO were”, “into a” for “into the”

[6] = tested on: Osteosarcoma cell line U2; assay: in vitro cell proliferation inhibition (CCK-8); type: cell-based; conditions: 48 h incubation
Description: as §1
as §1, with “400 mg/L,” for “400 mg/L”, “of” for “of quercetin, quercetin 3-methyl ether, and”, “DMSO was” for “DMSO were”, “into a” for “into the”

[7] = tested on: cervical cancer cells Hela; assay: in vitro cell proliferation inhibition (CCK-8); type: cell-based; conditions: 48 h incubation
Description: as §1
as §1, with “400 mg/L,” for “400 mg/L”, “of” for “of quercetin, quercetin 3-methyl ether, and”, “DMSO was” for “DMSO were”, “into a” for “into the”

lung cancer cells A549 = assay: in vitro cell proliferation inhibition (CCK-8); type: cell-based; conditions: 48 h incubation
Description: as §1
as §1, with “400 mg/L,” for “400 mg/L”, “of” for “of quercetin, quercetin 3-methyl ether, and”, “DMSO was” for “DMSO were”, “into a” for “into the”

[8] = tested on: human prostate cancer cells PC3; assay: in vitro cell proliferation inhibition (CCK-8); type: cell-based; conditions: 48 h incubation
Description: as §1
as §1, with “400 mg/L,” for “400 mg/L”, “of” for “of quercetin, quercetin 3-methyl ether, and”, “DMSO was” for “DMSO were”, “into a” for “into the”

[9] = tested on: Osteosarcoma cell line HOS; assay: in vitro cell proliferation inhibition (CCK-8); type: cell-based; conditions: 48 h incubation
Description: as §1
as §1, with “400 mg/L,” for “400 mg/L”, “of” for “of quercetin, quercetin 3-methyl ether, and”, “DMSO was” for “DMSO were”, “into a” for “into the”

[10] = tested on: breast cancer cell line MDA-MB-231; assay: in vitro cell proliferation inhibition (CCK-8); type: cell-based; conditions: 48 h incubation
Description: as §1
as §1, with “400 mg/L,” for “400 mg/L”, “of” for “of quercetin, quercetin 3-methyl ether, and”, “DMSO was” for “DMSO were”, “into a” for “into the”

[11] = tested on: human thyroid cancer cell line BCPAP; assay: in vitro cell proliferation inhibition (CCK-8); type: cell-based; conditions: 48 h incubation
Description: as §1
as §1, with “400 mg/L,” for “400 mg/L”, “of” for “of quercetin, quercetin 3-methyl ether, and”, “DMSO was” for “DMSO were”, “into a” for “into the”

mouse glioma cells BV-2 = assay: in vitro cell proliferation inhibition (CCK-8); type: cell-based; conditions: BV2, 48 h incubation
Description: as §1
as §1, with “400 mg/L,” for “400 mg/L”, “of” for “of quercetin, quercetin 3-methyl ether, and”, “DMSO was” for “DMSO were”, “into a” for “into the”

[12] = tested on: liver cancer cell line HepG2; assay: in vitro cell proliferation inhibition (CCK-8); type: cell-based; conditions: 48 h incubation
Description: as §1
as §1, with “400 mg/L,” for “400 mg/L”, “of” for “of quercetin, quercetin 3-methyl ether, and”, “DMSO was” for “DMSO were”, “into a” for “into the”

[13] = tested on: gastric cancer cell line BGC-823; assay: in vitro cell proliferation inhibition (CCK-8); type: cell-based
Description: as §1
as §1, with “400 mg/L,” for “400 mg/L”, “of” for “of quercetin, quercetin 3-methyl ether, and”, “DMSO was” for “DMSO were”, “into a” for “into the”

[14] = tested on: breast cancer cell line T47D; assay: in vitro cell proliferation inhibition (CCK-8); type: cell-based; conditions: 48 h incubation
Description: as §1
as §1, with “400 mg/L,” for “400 mg/L”, “of” for “of quercetin, quercetin 3-methyl ether, and”, “DMSO was” for “DMSO were”, “into a” for “into the”

SMILES: O=c1[nH]c(=O)n(C2CCCO2)cc1F (stereo not shown) [tegafur, reference compound]
mortality of the mice [1]: all dead

IC50 ([2]; 48 h incubation): 215.61 µg/mL (≈ 682 µM)
IC50 [3]: 117.04 µg/mL (≈ 370 µM)
IC50 ([4]; SGC7901, 48 h incubation): 123.94 µg/mL (≈ 392 µM)
IC50 [5]: 210.34 µg/mL (≈ 665 µM)
IC50 [6]: 377.08 µg/mL (≈ 1190 µM)
IC50 [7]: 82.34 µg/mL (≈ 260 µM)
IC50 (lung cancer cells A549): 252.27 µg/mL (≈ 798 µM)
IC50 [8]: 368.40 µg/mL (≈ 1160 µM)
IC50 [9]: 130.84 µg/mL (≈ 414 µM)
IC50 [10]: 92.14 µg/mL (≈ 291 µM)
IC50 [11]: 157.67 µg/mL (≈ 499 µM)
IC50 (mouse glioma cells BV-2): 288.00 µg/mL (≈ 911 µM)
IC50 [12]: 58.45 µg/mL (≈ 185 µM)
IC50 ([13]; BGC823, 48 h incubation): 192.55 µg/mL (≈ 609 µM)
IC50 [14]: 154.72 µg/mL (≈ 489 µM)
SMILES: COc1c(-c2ccc(O)c(O)c2)oc2cc(O)cc(O)c2c1=O [Quercetin 3-methyl ether, quercetin 3-methyl ether]

IC50 ([2]; Homo sapiens, Caco-2, 48 h incubation, read-out: IC50): > 400 µg/mL
IC50 ([3]; read-out: IC50): 329 µg/mL (≈ 1090 µM)
IC50 ([4]; Homo sapiens, SGC-7901, SGC7901, 48 h incubation, read-out: IC50): > 400 µg/mL
IC50 ([5]; Homo sapiens, read-out: IC50): > 400 µg/mL
IC50 ([6]; read-out: IC50): > 400 µg/mL
IC50 ([7]; Homo sapiens, read-out: IC50): 196 µg/mL (≈ 648 µM)
IC50 (lung cancer cells A549; Homo sapiens, read-out: IC50): > 400 µg/mL
IC50 ([8]; Homo sapiens, read-out: IC50): > 400 µg/mL
IC50 ([9]; read-out: IC50): > 400 µg/mL
IC50 ([10]; Homo sapiens, read-out: IC50): 331 µg/mL (≈ 1090 µM)
IC50 ([11]; Homo sapiens, read-out: IC50): 391 µg/mL (≈ 1290 µM)
IC50 (mouse glioma cells BV-2; Mus musculus, Glioma cell, read-out: IC50): > 400 µg/mL
IC50 ([12]; Homo sapiens, read-out: IC50): 155 µg/mL (≈ 513 µM)
IC50 ([13]; Homo sapiens, BGC-823, BGC823, 48 h incubation, read-out: IC50): > 400 µg/mL
IC50 ([14]; Homo sapiens, read-out: IC50): > 400 µg/mL
SMILES: O=c1c(O)c(-c2ccc(O)c(O)c2)oc2cc(O)cc(O)c12 [Quercetin, quercetin]
